Experiment: xn = mol fraction of the nth substance listed
Conditions: Liquid

CCCCCCCCCC=CC=CC=CC=CC=CC=CC(=O)OCC [docosahexaenoic acid, ethyl ester] + O=C=O
Conditions | mass density [kg/m3]
313 K, x2 = 0.5325 | 912.2
313 K, x2 = 0.6836 | 915.9
313 K, x2 = 0.7773 | 919.1
313 K, x2 = 0.849 | 920.8
313 K, x2 = 0.8795 | 921.3
313 K, x2 = 0.8972 | 922.1
313 K, x2 = 0.9121 | 923
313 K, x2 = 0.9222 | 923.7
313 K, x2 = 0.9266 | 923.8
313 K, x2 = 0.9335 | 924
313 K, x2 = 0.9366 | 923.9
313 K, x2 = 0.9392 | 924.1
313 K, x2 = 0.9443 | 921.9
333 K, x2 = 0.5583 | 894.9
333 K, x2 = 0.6793 | 896.5
333 K, x2 = 0.7551 | 898.4
333 K, x2 = 0.7811 | 899.5
333 K, x2 = 0.8154 | 900
333 K, x2 = 0.8278 | 900.5
333 K, x2 = 0.8411 | 900.7
333 K, x2 = 0.8612 | 900.8
333 K, x2 = 0.8784 | 901
333 K, x2 = 0.8918 | 901.4
333 K, x2 = 0.9022 | 901.3
333 K, x2 = 0.9114 | 900.5
333 K, x2 = 0.9221 | 899
333 K, x2 = 0.9419 | 887.6

CCCCCCCCCC=CC=CC=CC=CC=CC(=O)OCC [eicosapentaenoic acid, ethyl ester] + O=C=O
Conditions | mass density [kg/m3]
313 K, x2 = 0.5962 | 907.6
313 K, x2 = 0.6865 | 911.9
313 K, x2 = 0.7582 | 915.2
313 K, x2 = 0.8265 | 916.8
313 K, x2 = 0.8496 | 916.3
313 K, x2 = 0.8708 | 916
313 K, x2 = 0.8826 | 916.1
313 K, x2 = 0.8921 | 916
313 K, x2 = 0.9008 | 915.5
313 K, x2 = 0.9091 | 915.2
313 K, x2 = 0.9184 | 913.7
313 K, x2 = 0.9264 | 912.3
313 K, x2 = 0.9402 | 906.6
333 K, x2 = 0.2842 | 886.2
333 K, x2 = 0.5005 | 888.6
333 K, x2 = 0.5996 | 890.9
333 K, x2 = 0.6826 | 892.9
333 K, x2 = 0.7423 | 894.3
333 K, x2 = 0.7876 | 895.3
333 K, x2 = 0.8186 | 895.6
333 K, x2 = 0.8338 | 895.5
333 K, x2 = 0.8541 | 895.1
333 K, x2 = 0.8766 | 894.8
333 K, x2 = 0.8927 | 894.1
333 K, x2 = 0.9043 | 892.8
333 K, x2 = 0.916 | 890.3
333 K, x2 = 0.9324 | 879.8

CCCCC/C=C\C/C=C\CCCCCCCC(=O)OC [methyl (Z,Z)-9,12-octadecadienate] + O=C=O
Conditions | mass density [kg/m3]
313 K, x2 = 0.5217 | 879.7
313 K, x2 = 0.6288 | 881.5
313 K, x2 = 0.7185 | 884.5
313 K, x2 = 0.758 | 888.1
313 K, x2 = 0.8057 | 890.6
313 K, x2 = 0.8337 | 892.9
313 K, x2 = 0.8624 | 895.4
313 K, x2 = 0.8862 | 896.8
313 K, x2 = 0.8984 | 895.2
313 K, x2 = 0.9209 | 892.9
313 K, x2 = 0.9289 | 890.5
313 K, x2 = 0.9388 | 885.7
333 K, x2 = 0.6128 | 868.3
333 K, x2 = 0.7016 | 870.8
333 K, x2 = 0.791 | 872.8
333 K, x2 = 0.8255 | 874.1
333 K, x2 = 0.852 | 875
333 K, x2 = 0.8742 | 874.1
333 K, x2 = 0.8981 | 873.4
333 K, x2 = 0.9048 | 872.7
333 K, x2 = 0.9102 | 871.7
333 K, x2 = 0.9156 | 870.5
333 K, x2 = 0.9193 | 870
333 K, x2 = 0.9264 | 864.7
333 K, x2 = 0.934 | 860.3
333 K, x2 = 0.9509 | 838.1

CCCCCCCC/C=C\CCCCCCCC(=O)OC [methyl cis-9-octadecenoate] + O=C=O
Conditions | mass density [kg/m3]
313 K, x2 = 0.4876 | 868.6
313 K, x2 = 0.5963 | 874.2
313 K, x2 = 0.7077 | 878.5
313 K, x2 = 0.7931 | 884.3
313 K, x2 = 0.833 | 885.5
313 K, x2 = 0.8595 | 887.5
313 K, x2 = 0.8736 | 887.5
313 K, x2 = 0.8891 | 886.9
313 K, x2 = 0.9111 | 886.4
313 K, x2 = 0.9231 | 885.1
313 K, x2 = 0.9312 | 882.7
313 K, x2 = 0.9387 | 881.2
333 K, x2 = 0.6086 | 857.1
333 K, x2 = 0.6969 | 859.9
333 K, x2 = 0.7916 | 862.3
333 K, x2 = 0.8255 | 864.4
333 K, x2 = 0.8509 | 865.8
333 K, x2 = 0.8813 | 867.4
333 K, x2 = 0.8901 | 864.5
333 K, x2 = 0.9072 | 864.9
333 K, x2 = 0.9167 | 863.2
333 K, x2 = 0.9213 | 863.1
333 K, x2 = 0.9282 | 859.2
333 K, x2 = 0.9341 | 858.9
333 K, x2 = 0.943 | 851.6
